The target of the experiment is T1, Bacillus lentus alkaline protease F49 (Lederbergia lenta, UniProt P29599, A188P/L211D/S3T/V193M/V199I).
T1 sequence (P29599 with tags, fused parts or gaps A188P/V193M/V199I/L211D limits assumed): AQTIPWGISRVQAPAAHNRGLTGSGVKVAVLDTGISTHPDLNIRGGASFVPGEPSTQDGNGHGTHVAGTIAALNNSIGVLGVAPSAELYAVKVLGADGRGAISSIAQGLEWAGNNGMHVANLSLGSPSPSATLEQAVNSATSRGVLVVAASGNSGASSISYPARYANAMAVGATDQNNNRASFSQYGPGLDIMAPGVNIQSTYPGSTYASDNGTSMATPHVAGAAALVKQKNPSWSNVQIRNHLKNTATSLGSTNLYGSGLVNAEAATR
Kind of experiment: Residual protease activity in the presence of an inhibitor (AAPFpNA substrate). The class given is biochemical. The settings on record: compound 10 mM final concentration; incubation 5 min at pH 8.6 and 25° C.; batch without compound set at 100%. On the procedure:
In parallel reaction batches, the succinyl-alanine-alanine-proline-phenylalanine-para-nitroanilide substrate (AAPFpNA; Bachem L-1400) and 5×10^−9 or 1×10^−8 M of the protease were prepared in 100 mM BrijTM35 Tris buffer, […], 0.1% (w/v). The compounds to be tested (listed below) were added at a final concentration of 10 mM. They were each dissolved in anhydrous DMSO, the effects of DMSO on enzymatic activity having been corrected via the corresponding reference having the same quantity of DMSO but without the relevant compound. Incubation occurred for 5 min at pH 8.6 and 25° C. The corresponding reaction mixture with protease, but without the relevant compound, served as a comparison. The protease activity in these comparison batches was set at 100%.

For two compounds, residual protease activity results are on record in patent US8466098B2, “Washing agent having stabilized enzymes” (Henkel AG & Co. KGaA, priority 2007, dated 2013).

With `CCCCOP(=O)(O)OCCCC` [V1, dibutyl phosphate], the residual protease activity turned out to be 45%.

As for `O=P(O)(OCc1ccccc1)OCc1ccccc1` [V2, dibenzyl phosphate], the residual protease activity amounted to 56%.
